pIC50: −log10 of the molar value. Values belong to the compound of their own block, whether it stands above or below them.
Columns and labels:
human factor XIa = human factor XIa (Homo sapiens (Human), UniProt P03951); assay: Measurement of FXIa inhibition (fluorogenic peptide substrate); format: biochemical; conditions: factor XIa from Kordia, substrate Boc-Glu(OBzl)-Ala-Arg-AMC, 22° C., 30 min
Description: (§1) The factor XIa inhibition of the substances according to the invention is determined using a biochemical test system which utilizes the reaction of a peptidic factor XIa substrate to determine the enzymatic activity of human factor XIa. Here, factor XIa cleaves from the peptic factor XIa substrate the C-terminal aminomethylcoumarin (AMC), the fluorescence of which is measured. The determinations are carried out in microtitre plates.
1 μl of the diluted substance solutions is placed into each of the wells of white microtitre plates from Greiner (384 wells). […] After […] of incubation, the enzyme reaction is started by addition of 20 μl of the factor XIa substrate Boc-Glu(OBz1)-Ala-Arg-AMC dissolved in assay buffer (10 μM in assay buffer) from Bachem, the mixture is incubated at room temperature (22° C.) for 30 min and fluorescence is then measured (excitation: 360 nm, emission: 460 nm). The measured emissions of the test batches with test substance are compared to those of control batches without test substance (only dimethyl sulphoxide instead of test substance in dimethyl sulphoxide), and IC50 values are calculated from the concentration/activity relationships.

human plasma kallikrein = human plasma kallikrein (Homo sapiens (Human), UniProt P03952); assay: Determination of the plasma kallikrein activity (fluorogenic peptide substrate); format: biochemical; conditions: plasma kallikrein from Kordia, substrate H-Pro-Phe-Arg-AMC, 22° C.
Sequence of human plasma kallikrein (P03952 whole entry, looked up): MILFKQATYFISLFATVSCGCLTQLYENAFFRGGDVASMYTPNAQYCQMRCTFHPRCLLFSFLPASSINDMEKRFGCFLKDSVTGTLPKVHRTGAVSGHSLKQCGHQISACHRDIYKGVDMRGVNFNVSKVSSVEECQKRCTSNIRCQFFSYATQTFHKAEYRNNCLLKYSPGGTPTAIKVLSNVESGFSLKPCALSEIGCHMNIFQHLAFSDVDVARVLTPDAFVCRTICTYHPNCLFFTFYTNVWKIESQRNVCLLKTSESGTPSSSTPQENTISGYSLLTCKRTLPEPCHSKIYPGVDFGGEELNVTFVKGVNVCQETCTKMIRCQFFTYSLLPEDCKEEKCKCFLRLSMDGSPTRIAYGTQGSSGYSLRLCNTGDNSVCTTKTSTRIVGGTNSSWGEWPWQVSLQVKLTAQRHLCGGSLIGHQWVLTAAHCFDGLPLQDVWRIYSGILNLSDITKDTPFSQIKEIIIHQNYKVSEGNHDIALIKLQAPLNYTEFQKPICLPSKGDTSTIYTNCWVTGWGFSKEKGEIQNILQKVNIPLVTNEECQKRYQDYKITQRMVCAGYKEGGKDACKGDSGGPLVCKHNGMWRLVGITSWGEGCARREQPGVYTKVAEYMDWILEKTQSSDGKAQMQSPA
Sequence of human plasma kallikrein (P03952 whole entry partner, looked up): as the sequence (P03952 whole entry, looked up) above
Description: as §1, with “To determine the plasma kallikrein” for “The factor XIa”, “invention,” for “invention is determined using”, “system is used” for “system”, “plasma kallikrein” for “factor XIa”, “plasma kallikrein.” for “factor XIa.”
Test substances are dissolved in dimethyl sulphoxide and serially diluted in dimethyl sulphoxide (3000 μM to 0.0078 μM; resulting final concentrations in the test: 50 μM to 0.00013 μM). 1 μl of the diluted substance solutions is placed into each of the wells of white microtitre plates from Greiner (384 wells). 20 μl of assay buffer (50 mM Tris/HCl pH 7.4; 100 mM sodium chloride solution; 5 mM calcium chloride solution; 0.1% of bovine serum albumin) and 20 μl of plasma kallikrein from Kordia (0.6 nM in assay buffer) are then added successively. After […] of incubation, the enzyme reaction is started by addition of 20 μl of the substrate H-Pro-Phe-Arg-AMC dissolved in assay buffer (10 μM in assay buffer) from Bachem, the mixture is incubated at room temperature (22° C.) for […] and fluorescence is then measured (excitation: 360 nm, emission: 460 nm). The measured emissions of the test batches with test substance are compared to those of control batches without test substance (only dimethyl sulphoxide instead of test substance in dimethyl sulphoxide), and IC50 values are calculated from the concentration/activity relationships.

Sequence of human factor XIa (P03951 whole entry, looked up): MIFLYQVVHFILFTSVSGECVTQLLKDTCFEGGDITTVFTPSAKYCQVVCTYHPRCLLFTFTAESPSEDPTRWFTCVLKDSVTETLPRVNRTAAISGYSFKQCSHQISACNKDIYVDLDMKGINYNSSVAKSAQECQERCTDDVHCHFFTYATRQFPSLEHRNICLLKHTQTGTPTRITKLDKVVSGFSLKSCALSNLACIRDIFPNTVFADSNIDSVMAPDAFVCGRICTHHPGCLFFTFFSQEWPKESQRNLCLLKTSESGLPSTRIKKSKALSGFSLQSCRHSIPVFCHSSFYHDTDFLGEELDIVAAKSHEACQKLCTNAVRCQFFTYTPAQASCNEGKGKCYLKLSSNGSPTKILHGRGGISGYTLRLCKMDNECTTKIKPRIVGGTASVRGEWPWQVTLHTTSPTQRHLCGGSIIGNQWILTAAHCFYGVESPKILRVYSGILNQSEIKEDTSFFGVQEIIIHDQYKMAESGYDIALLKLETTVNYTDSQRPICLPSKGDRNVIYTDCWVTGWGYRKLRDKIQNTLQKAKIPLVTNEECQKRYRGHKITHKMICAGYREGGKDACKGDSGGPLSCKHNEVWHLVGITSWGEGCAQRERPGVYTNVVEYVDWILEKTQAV
Sequence of human factor XIa (P03951 whole entry partner, looked up): as the sequence (P03951 whole entry, looked up) above

SMILES: CCC(C(=O)Nc1ccc(C(=O)OC[C@@H](C(=O)O)N2CCCC2)cc1)n1cc(OC)c(-c2cc(Cl)ccc2C#N)cc1=O (single isomer, unassigned) [Example 12]
pIC50 (human factor XIa): 7.59
pIC50 (human plasma kallikrein): 7.37

SMILES: CCC(C(=O)Nc1ccc(C(=O)OC[C@](C)(N)C(=O)O)cc1)n1cc(OC)c(-c2cc(Cl)ccc2C#N)cc1=O (single isomer, unassigned) [Example 3, O-[4-({2-[4-(5-Chloro-2-cyanophenyl)-5-methoxy-2-oxopyridin-1(2H)-yl]butanoyl}amino)-benzoyl]-2-methyl-L-serine]
pIC50 (human factor XIa): 7.09
pIC50 (human plasma kallikrein): 7.22

SMILES: CCC(C(=O)Nc1ccc(C(=O)OC2CCN(C)CC2)cc1)n1cc(OC)c(-c2cc(Cl)ccc2C#N)cc1=O (single isomer, unassigned) [Example 13, 1-Methylpiperidin-4-yl 4-({2-[4-(5-chloro-2-cyanophenyl)-5-methoxy-2-oxopyridin-1(2H)-yl]butanoyl}amino)benzoate]
pIC50 (human factor XIa): 6.64
pIC50 (human plasma kallikrein): 6.92

SMILES: CCC(C(=O)Nc1ccc(C(=O)O[C@H]2CCN[C@@H]2C(=O)O)cc1)n1cc(OC)c(-c2cc(Cl)ccc2C#N)cc1=O (single isomer, unassigned) [Example 10]
pIC50 (human factor XIa): 7.85
pIC50 (human plasma kallikrein): 7.04

SMILES: CCC(C(=O)Nc1ccc(C(=O)OC[C@H](N)C(=O)O)cc1)n1cc(OC)c(-c2cc(Cl)ccc2C#N)cc1=O (single isomer, unassigned) [Example 4, O-[4-({2-[4-(5-Chloro-2-cyanophenyl)-5-methoxy-2-oxopyridin-1(2H)-yl]butanoyl}amino)-benzoyl]-L-serine]
pIC50 (human factor XIa): 7.27
pIC50 (human plasma kallikrein): 7.04

SMILES: CCC(C(=O)Nc1ccc(C(=O)OC[C@H](NC(=O)[C@@H]2CCCN2)C(=O)O)cc1)n1cc(OC)c(-c2cc(Cl)ccc2C#N)cc1=O (stereo partly drawn) [Example 6, Prolyl-O-[4-({2-[4-(5-chloro-2-cyanophenyl)-5-methoxy-2-oxopyridin-1(2H)-yl]butanoyl}amino)-benzoyl]-L-serine]
pIC50 (human factor XIa): 7.19
pIC50 (human plasma kallikrein): 7.36

SMILES: CCC(C(=O)Nc1ccc(C(=O)OC[C@H](NC(=O)C2(N(C)C)CC2)C(=O)O)cc1)n1cc(OC)c(-c2cc(Cl)ccc2C#N)cc1=O (single isomer, unassigned) [Example 8, O-[4-({2-[4-(5-Chloro-2-cyanophenyl)-5-methoxy-2-oxopyridin-1(2H)-yl]butanoyl}amino)-benzoyl]-N-{[1-(dimethylamino)cyclopropyl]carbonyl}-L-serine]
pIC50 (human factor XIa): 6.96
pIC50 (human plasma kallikrein): 7.26

SMILES: CCC(C(=O)Nc1ccc(C(=O)OCCC2CCNCC2)cc1)n1cc(OC)c(-c2cc(Cl)ccc2C#N)cc1=O (single isomer, unassigned) [Example 15, 2-(Piperidin-4-yl)ethyl 4-({2-[4-(5-chloro-2-cyanophenyl)-5-methoxy-2-oxopyridin-1(2H)-yl]butanoyl}amino)benzoate]
pIC50 (human factor XIa): 6.64
pIC50 (human plasma kallikrein): 7.36

pIC50 (human plasma kallikrein): 7.42
SMILES: CCC(C(=O)Nc1ccc(C(=O)OCCN2CCN(C)CC2)cc1)n1cc(OC)c(-c2cc(Cl)ccc2C#N)cc1=O (single isomer, unassigned) [Example 14, 2-(4-Methylpiperazin-1-yl)ethyl 4-({2-[4-(5-chloro-2-cyanophenyl)-5-methoxy-2-oxopyridin-1(2H)-yl]butanoyl}amino)benzoate]

SMILES: CCC(C(=O)Nc1ccc(C(=O)OC[C@H](NC(=O)[C@H](C(C)C)N(C)C)C(=O)O)cc1)n1cc(OC)c(-c2cc(Cl)ccc2C#N)cc1=O (single isomer, unassigned) [Example 9, N,N-Dimethyl-L-valyl-O-[4-({2-[4-(5-chloro-2-cyanophenyl)-5-methoxy-2-oxopyridin-1(2H)-yl]butanoyl}amino)benzoyl]-L-serine]
pIC50 (human factor XIa): 7.20
pIC50 (human plasma kallikrein): 7.29

SMILES: COc1cn(C(C[C@@H]2CCCCO2)C(=O)Nc2ccc(C(=O)OC(C)[C@H](N)C(=O)O)cc2)c(=O)cc1-c1cc(Cl)ccc1C#N (single isomer, unassigned) [Example 1]
pIC50 (human factor XIa): 8.70
pIC50 (human plasma kallikrein): 8.04

SMILES: CCC(C(=O)Nc1ccc(C(=O)OC[C@H](NC(=O)CN2CCCC2)C(=O)O)cc1)n1cc(OC)c(-c2cc(Cl)ccc2C#N)cc1=O (single isomer, unassigned) [Example 5, O-[4-({2-[4-(5-Chloro-2-cyanophenyl)-5-methoxy-2-oxopyridin-1(2H)-yl]butanoyl}amino)-benzoyl]-N-(pyrrolidin-1-ylacetyl)-L-serine]
pIC50 (human factor XIa): 7.22
pIC50 (human plasma kallikrein): 7.46

pIC50 (human plasma kallikrein): 7.40
SMILES: CCC(C(=O)Nc1ccc(C(=O)OCCN2CCCC2)cc1)n1cc(OC)c(-c2cc(Cl)ccc2C#N)cc1=O (single isomer, unassigned) [Example 16, 2-(Pyrrolidin-1-yl)ethyl 4-({2-[4-(5-chloro-2-cyanophenyl)-5-methoxy-2-oxopyridin-1(2H)-yl]butanoyl}amino)benzoate]

SMILES: CCC(C(=O)Nc1ccc(C(=O)OC[C@H](NC(=O)C2CCCCN2C)C(=O)O)cc1)n1cc(OC)c(-c2cc(Cl)ccc2C#N)cc1=O (single isomer, unassigned) [Example 7]
pIC50 (human factor XIa): 7.04
pIC50 (human plasma kallikrein): 7.28

SMILES: CCC(C(=O)Nc1ccc(C(=O)O[C@H]2CN[C@@H](C(=O)O)C2)cc1)n1cc(OC)c(-c2cc(Cl)ccc2C#N)cc1=O (single isomer, unassigned) [Example 11]
pIC50 (human factor XIa): 6.59
pIC50 (human plasma kallikrein): 6.55

SMILES: CCC(C(=O)Nc1ccc(C(=O)OC(C)[C@H](N)C(=O)O)cc1)n1cc(OC)c(-c2cc(Cl)ccc2C#N)cc1=O (single isomer, unassigned) [Example 2, O-[4-({2-[4-(5-Chloro-2-cyanophenyl)-5-methoxy-2-oxopyridin-1(2H)-yl]butanoyl}amino)-benzoyl]-L-threonine]
pIC50 (human factor XIa): 7.27
pIC50 (human plasma kallikrein): 7.03

From US10414731B2, “Substituted oxopyridine derivatives” (priority 2014, dated 2019)
